Laboratory results: BindingDB's records for doi:10.1021/jm021050c (Universit&#233, 2003)

Molecular target: imidazoline I2 binding site (Oryctolagus cuniculus)
Assay: In vitro binding affinity determined against imidazoline receptor I-2 using rabbit kidney preparation

Compound | Ki [µM]
CCOCc1ccc2c(c1)N(C)CC(C1=NCCN1)O2 (stereo unspecified) [2-(4,5-Dihydro-1H-imidazol-2-yl)-6-ethoxymethyl-4-methyl-3,4-dihydro-2H-benzo[1,4]oxazine] | 0.017
COc1cc(=O)n2c3c(cccc13)OC(C1=NCCN1)C2 (stereo unspecified) [2-(4,5-Dihydro-1H-imidazol-2-yl)-6-methoxy-2,3-dihydro-1-oxa-3a-aza-phenalen-4-one] | 0.75
Cc1cccc2c1N(C)CC(C1=NCCN1)O2 (stereo unspecified) [2-(4,5-Dihydro-1H-imidazol-2-yl)-4,5-dimethyl-3,4-dihydro-2H-benzo[1,4]oxazine] | 0.47
CN1CC(C2=NCCN2)Oc2cc3ccccc3cc21 (stereo unspecified) [2-(4,5-Dihydro-1H-imidazol-2-yl)-4-methyl-3,4-dihydro-2H-naphtho[2,3-b][1,4]oxazine] | 0.278
CN1CC(C2=NCCN2)Oc2ccc(Cl)cc21 (stereo unspecified) [6-Chloro-2-(4,5-dihydro-1H-imidazol-2-yl)-4-methyl-3,4-dihydro-2H-benzo[1,4]oxazine] | 0.173
COC(=O)c1ccc2c(c1)N(C)CC(C1=NCCN1)O2 (stereo unspecified) [2-(4,5-Dihydro-1H-imidazol-2-yl)-4-methyl-3,4-dihydro-2H-benzo[1,4]oxazine-6-carboxylic acid methyl ester] | 0.007
c1cc2c3c(c1)OC(C1=NCCN1)CN3CCCC2 (stereo unspecified) [2-(4,5-Dihydro-1H-imidazol-2-yl)-1,2,7,8,9,10-hexahydro-3-oxa-10a-aza-cyclohepta[de]naphthalene] | 0.643
CCCC1(C2=NCCN2)CN(C)c2ccccc2O1 (stereo unspecified) [2-(4,5-Dihydro-1H-imidazol-2-yl)-4-methyl-2-propyl-3,4-dihydro-2H-benzo[1,4]oxazine] | 8.53
c1cc2c3c(c1)OC(C1=NCCN1)CN3CC2 (stereo unspecified) [4-(4,5-Dihydro-1H-imidazol-2-yl)-1,2,3,4-tetrahydro-5-oxa-2a-aza-acenaphthylene] | 0.033
CN1CC(C)(C2=NCCN2)Oc2ccccc21 (stereo unspecified) [2-(4,5-Dihydro-1H-imidazol-2-yl)-2,4-dimethyl-3,4-dihydro-2H-benzo[1,4]oxazine] | > 10
CN1CC(C2=NCCN2)Oc2ccc(CO)cc21 (stereo unspecified) [[2-(4,5-Dihydro-1H-imidazol-2-yl)-4-methyl-3,4-dihydro-2H-benzo[1,4]oxazin-6-yl]-methanol] | 0.1
Cc1ccc2c(c1)OC(C1=NCCN1)CN2C (stereo unspecified) [2-(4,5-Dihydro-1H-imidazol-2-yl)-4,7-dimethyl-3,4-dihydro-2H-benzo[1,4]oxazine] | 0.047
Cc1cc(C)c2c(c1)N(C)CC(C1=NCCN1)O2 (stereo unspecified) [2-(4,5-Dihydro-1H-imidazol-2-yl)-4,6,8-trimethyl-3,4-dihydro-2H-benzo[1,4]oxazine] | > 1
Cc1cccc2c1OC(C1=NCCN1)CN2C (stereo unspecified) [2-(4,5-Dihydro-1H-imidazol-2-yl)-4,8-dimethyl-3,4-dihydro-2H-benzo[1,4]oxazine] | 0.054
c1ccc2c(c1)NCC(C1=NCCN1)O2 (stereo unspecified) [2-(4,5-Dihydro-1H-imidazol-2-yl)-3,4-dihydro-2H-benzo[1,4]oxazine] | 0.051
Cc1ccc2c3c1CCCN3CC(C1=NCCN1)O2 (stereo unspecified) [2-(4,5-Dihydro-1H-imidazol-2-yl)-7-methyl-2,3,5,6-tetrahydro-4H-1-oxa-3a-aza-phenalene] | > 1
